Experimental data reported in ChEMBL document CHEMBL3124828, “A 2,6,9-hetero-trisubstituted purine inhibitor exhibits potent biological effects against multiple myeloma cells” (Bioorg Med Chem, 2013).
The source made the active and inactive calls. The calls are words filed in the database; no cut-off is given here.

Columns and labels:
[1] = Induction of apoptosis in human XG6 cells assessed as early apoptotic cells at 7.5 uM after 48 hrs by annexinV/propidium iodide staining (reference value: 8.62%); format: functional
[2] = Induction of apoptosis in human XG6 cells assessed as late apoptotic cells at 7.5 uM after 48 hrs by annexinV/propidium iodide staining (reference value: 7.78%); format: functional
[3] = Induction of apoptosis in human XG6 cells assessed as viable cells at 12.5 uM after 48 hrs by annexinV/propidium iodide staining (reference value: 83.3%); format: functional; conditions: XG6, 48 h, read-out: Activity
[4] = Induction of apoptosis in human XG6 cells assessed as early apoptotic cells at 12.5 uM after 48 hrs by annexinV/propidium iodide staining (reference value: 8.62%); format: functional
[5] = Induction of apoptosis in human XG6 cells assessed as late apoptotic cells at 12.5 uM after 48 hrs by annexinV/propidium iodide staining (reference value: 7.78%); format: functional
JJN-3 [6] = experiment: Induction of apoptosis in human JJN-3 cells assessed as early apoptotic cells at 12.5 uM after 48 hrs by annexinV/propidium iodide staining (reference value: 13.3%); format: functional
JJN-3 [7] = experiment: Induction of apoptosis in human JJN-3 cells assessed as late apoptotic cells at 12.5 uM after 48 hrs by annexinV/propidium iodide staining (reference value: 9.59%); format: functional
JJN-3 [8] = experiment: Induction of apoptosis in human JJN-3 cells assessed as viable cells at 7.5 uM after 48 hrs by annexinV/propidium iodide staining (reference value: 75.9%); format: functional; conditions: JJN-3, 48 h, read-out: Activity
JJN-3 [9] = experiment: Induction of apoptosis in human JJN-3 cells assessed as early apoptotic cells at 7.5 uM after 48 hrs by annexinV/propidium iodide staining (reference value: 13.3%); format: functional
JJN-3 [10] = experiment: Induction of apoptosis in human JJN-3 cells assessed as late apoptotic cells at 7.5 uM after 48 hrs by annexinV/propidium iodide staining (reference value: 9.59%); format: functional
JJN-3 [11] = experiment: Induction of apoptosis in human JJN-3 cells assessed as viable cells at 12.5 uM after 48 hrs by annexinV/propidium iodide staining (reference value: 75.9%); format: functional; conditions: JJN-3, 48 h, read-out: Activity
[12] = Induction of apoptosis in human XG6 cells assessed as viable cells at 7.5 uM after 48 hrs by annexinV/propidium iodide staining (reference value: 83.3%); format: functional; conditions: XG6, 48 h, read-out: Activity
[13] = biological target: AP2-associated protein kinase 1 (Homo sapiens) (UniProt Q2M2I8); experiment: Inhibition of AAK1 (unknown origin) at 2.5 uM after 20 mins
[14] = test system: Tyrosine-protein kinase ABL1 (Homo sapiens), P00519 [F317L]; experiment: Inhibition of ABL1 F317L mutant (unknown origin) at 2.5 uM after 20 mins
[15] = biological target: Tyrosine-protein kinase JAK1 (Homo sapiens) (UniProt P23458); experiment: Inhibition of JAK1 (unknown origin) at 100 uM after 20 mins
[16] = biological target: Signal transducer and activator of transcription 3 (Homo sapiens) (UniProt P40763); experiment: Displacement of FAM-GpYLPQTV-NH2 from full-length Stat3 SH2 domain (unknown origin) up to 100 uM by fluorescence polarization
[17] = biological target: Signal transducer and activator of transcription 3 (Homo sapiens) (UniProt P40763); experiment: Displacement of FAM-GpYLPQTV-NH2 from full-length Stat3 SH2 domain (unknown origin) up to 400 uM by fluorescence polarization
XG6 [18] = experiment: Induction of apoptosis in human XG6 cells assessed as late apoptotic cells at 15 uM after 48 hrs by annexinV/propidium iodide staining; format: functional, cell-based
JJN-3 [19] = experiment: Cytotoxicity against human JJN-3 cells assessed as growth inhibition after 48 hrs by MTT assay; format: functional, cell-based
SK-MM-2 = experiment: Cytotoxicity against human SKMM-2 cells assessed as growth inhibition after 48 hrs by MTT assay; format: functional, cell-based
OCI-AML2 = experiment: Cytotoxicity against human OCI-AML2 cells after 72 hrs by MTS assay; format: functional, cell-based
XG6 [20] = experiment: Cytotoxicity against human XG6 cells assessed as growth inhibition at 10 uM after 48 hrs by MTT assay; format: functional, cell-based
DU-145 = experiment: Cytotoxicity against human DU145 cells after 72 hrs by MTS assay; format: functional, cell-based
MDA-MB-468 = experiment: Cytotoxicity against human MDA-MB-468 cells after 72 hrs by MTS assay; format: functional, cell-based; conditions: MDA-MB-468, 72 h
[21] = biological target: Signal transducer and activator of transcription 3 (Homo sapiens) (UniProt P40763); experiment: Inhibition of STAT3 phosphorylation in IL-6 stimulated human OPM2 cells at > IC50 after 30 mins by flow cytometry; format: cell-based; conditions: OPM-2
[22] = biological target: T1, Tyrosine-protein kinase JAK2 (Homo sapiens, UniProt O60674); experiment: Inhibition of JAK2 (unknown origin) at 50 uM after 20 mins
[23] = biological target: T2, Tyrosine-protein kinase JAK3 (Homo sapiens) (UniProt P52333); experiment: Inhibition of JAK3 (unknown origin) at 50 uM after 20 mins
T2 sequence (whole entry): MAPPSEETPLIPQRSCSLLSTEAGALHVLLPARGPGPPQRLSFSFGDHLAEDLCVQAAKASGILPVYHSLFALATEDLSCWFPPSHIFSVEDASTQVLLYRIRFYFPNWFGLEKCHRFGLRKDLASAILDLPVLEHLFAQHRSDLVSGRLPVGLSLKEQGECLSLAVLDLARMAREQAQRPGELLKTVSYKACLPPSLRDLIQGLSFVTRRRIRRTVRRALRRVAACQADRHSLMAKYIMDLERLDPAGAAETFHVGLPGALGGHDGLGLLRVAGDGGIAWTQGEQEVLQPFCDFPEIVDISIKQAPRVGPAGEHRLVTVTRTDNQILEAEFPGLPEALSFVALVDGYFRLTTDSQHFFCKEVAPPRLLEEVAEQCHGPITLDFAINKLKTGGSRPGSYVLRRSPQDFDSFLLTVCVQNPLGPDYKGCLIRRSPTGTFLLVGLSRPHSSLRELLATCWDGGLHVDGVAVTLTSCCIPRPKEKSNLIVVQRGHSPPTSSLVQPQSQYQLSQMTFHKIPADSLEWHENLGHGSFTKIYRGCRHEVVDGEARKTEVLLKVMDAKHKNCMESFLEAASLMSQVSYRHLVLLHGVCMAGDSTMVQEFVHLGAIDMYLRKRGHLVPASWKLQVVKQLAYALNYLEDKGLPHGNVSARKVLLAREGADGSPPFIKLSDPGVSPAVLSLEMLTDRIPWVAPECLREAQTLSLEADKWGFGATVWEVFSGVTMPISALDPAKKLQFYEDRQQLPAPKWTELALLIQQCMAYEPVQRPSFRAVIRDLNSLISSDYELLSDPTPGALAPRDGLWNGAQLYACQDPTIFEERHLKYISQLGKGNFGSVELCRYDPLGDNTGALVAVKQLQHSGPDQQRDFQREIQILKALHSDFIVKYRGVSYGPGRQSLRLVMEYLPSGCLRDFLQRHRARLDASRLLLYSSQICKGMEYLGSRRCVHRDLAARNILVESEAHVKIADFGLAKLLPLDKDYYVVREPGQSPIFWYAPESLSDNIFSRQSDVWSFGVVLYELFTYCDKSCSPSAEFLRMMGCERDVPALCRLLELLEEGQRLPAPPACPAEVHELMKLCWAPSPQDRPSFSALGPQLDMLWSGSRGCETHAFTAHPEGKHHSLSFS

[24] = biological target: Leukocyte tyrosine kinase receptor (Homo sapiens, UniProt P29376); experiment: Inhibition of TYK1 (unknown origin) after 20 mins
[25] = biological target: T3, Tyrosine-protein kinase JAK3 (Homo sapiens, UniProt P52333); experiment: Inhibition of JAK3 (unknown origin) after 20 mins
T3 sequence (P52333 whole entry): T2 sequence (whole entry)

[26] = biological target: T1, Tyrosine-protein kinase JAK2; experiment: Inhibition of JAK2 (unknown origin) after 20 mins

Chain of Signal transducer and activator of transcription 3 (Homo sapiens) (P40763 whole entry, the tested form may be a part): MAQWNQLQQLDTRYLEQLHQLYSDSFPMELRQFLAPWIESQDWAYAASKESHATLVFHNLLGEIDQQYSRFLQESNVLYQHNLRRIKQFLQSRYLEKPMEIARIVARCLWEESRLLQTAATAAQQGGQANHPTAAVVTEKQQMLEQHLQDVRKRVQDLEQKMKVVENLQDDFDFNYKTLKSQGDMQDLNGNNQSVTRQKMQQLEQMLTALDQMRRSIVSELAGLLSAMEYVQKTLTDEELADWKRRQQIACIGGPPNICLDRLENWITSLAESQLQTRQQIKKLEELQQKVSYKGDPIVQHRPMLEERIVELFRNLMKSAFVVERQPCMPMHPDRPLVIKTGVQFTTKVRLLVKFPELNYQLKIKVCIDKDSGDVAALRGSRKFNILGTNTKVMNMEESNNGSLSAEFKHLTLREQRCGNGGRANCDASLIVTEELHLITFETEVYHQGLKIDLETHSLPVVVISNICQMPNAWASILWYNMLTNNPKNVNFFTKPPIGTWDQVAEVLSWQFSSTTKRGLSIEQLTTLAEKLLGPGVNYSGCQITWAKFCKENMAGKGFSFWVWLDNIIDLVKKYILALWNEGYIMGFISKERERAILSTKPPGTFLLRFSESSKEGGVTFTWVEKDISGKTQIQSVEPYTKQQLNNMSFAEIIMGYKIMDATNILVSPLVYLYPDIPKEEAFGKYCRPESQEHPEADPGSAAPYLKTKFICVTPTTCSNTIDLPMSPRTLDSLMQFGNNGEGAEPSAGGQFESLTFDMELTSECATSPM
T1 sequence (O60674 whole entry): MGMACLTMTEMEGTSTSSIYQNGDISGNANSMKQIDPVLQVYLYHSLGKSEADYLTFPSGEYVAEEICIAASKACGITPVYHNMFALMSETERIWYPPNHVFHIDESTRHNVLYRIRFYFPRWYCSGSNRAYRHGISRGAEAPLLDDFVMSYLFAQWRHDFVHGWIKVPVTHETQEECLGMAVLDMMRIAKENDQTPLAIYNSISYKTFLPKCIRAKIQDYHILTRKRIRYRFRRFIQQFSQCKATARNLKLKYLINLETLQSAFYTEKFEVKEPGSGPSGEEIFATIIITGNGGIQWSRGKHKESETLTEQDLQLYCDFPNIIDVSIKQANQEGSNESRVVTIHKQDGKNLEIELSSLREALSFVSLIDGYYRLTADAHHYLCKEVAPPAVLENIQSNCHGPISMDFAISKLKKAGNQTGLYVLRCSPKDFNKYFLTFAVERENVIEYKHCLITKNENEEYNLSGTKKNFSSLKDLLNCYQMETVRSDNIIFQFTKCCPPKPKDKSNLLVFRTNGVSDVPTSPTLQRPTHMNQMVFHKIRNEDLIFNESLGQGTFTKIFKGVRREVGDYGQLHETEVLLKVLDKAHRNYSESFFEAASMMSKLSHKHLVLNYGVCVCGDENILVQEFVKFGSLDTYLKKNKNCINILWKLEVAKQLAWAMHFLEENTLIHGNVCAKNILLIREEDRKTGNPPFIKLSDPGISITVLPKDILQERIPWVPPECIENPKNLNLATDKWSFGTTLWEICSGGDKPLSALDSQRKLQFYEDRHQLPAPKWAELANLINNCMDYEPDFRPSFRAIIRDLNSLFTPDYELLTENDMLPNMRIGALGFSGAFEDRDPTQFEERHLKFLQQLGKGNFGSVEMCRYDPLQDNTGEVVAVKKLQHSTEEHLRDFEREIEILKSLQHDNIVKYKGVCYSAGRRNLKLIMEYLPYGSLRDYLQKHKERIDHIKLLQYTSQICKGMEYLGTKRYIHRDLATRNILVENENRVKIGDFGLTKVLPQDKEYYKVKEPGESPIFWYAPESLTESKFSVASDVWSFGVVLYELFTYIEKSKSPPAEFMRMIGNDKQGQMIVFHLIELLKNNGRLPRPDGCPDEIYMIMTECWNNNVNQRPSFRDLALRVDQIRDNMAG
Chain of Tyrosine-protein kinase ABL1 (Homo sapiens), P00519 [F317L] (P00519 whole entry F317L): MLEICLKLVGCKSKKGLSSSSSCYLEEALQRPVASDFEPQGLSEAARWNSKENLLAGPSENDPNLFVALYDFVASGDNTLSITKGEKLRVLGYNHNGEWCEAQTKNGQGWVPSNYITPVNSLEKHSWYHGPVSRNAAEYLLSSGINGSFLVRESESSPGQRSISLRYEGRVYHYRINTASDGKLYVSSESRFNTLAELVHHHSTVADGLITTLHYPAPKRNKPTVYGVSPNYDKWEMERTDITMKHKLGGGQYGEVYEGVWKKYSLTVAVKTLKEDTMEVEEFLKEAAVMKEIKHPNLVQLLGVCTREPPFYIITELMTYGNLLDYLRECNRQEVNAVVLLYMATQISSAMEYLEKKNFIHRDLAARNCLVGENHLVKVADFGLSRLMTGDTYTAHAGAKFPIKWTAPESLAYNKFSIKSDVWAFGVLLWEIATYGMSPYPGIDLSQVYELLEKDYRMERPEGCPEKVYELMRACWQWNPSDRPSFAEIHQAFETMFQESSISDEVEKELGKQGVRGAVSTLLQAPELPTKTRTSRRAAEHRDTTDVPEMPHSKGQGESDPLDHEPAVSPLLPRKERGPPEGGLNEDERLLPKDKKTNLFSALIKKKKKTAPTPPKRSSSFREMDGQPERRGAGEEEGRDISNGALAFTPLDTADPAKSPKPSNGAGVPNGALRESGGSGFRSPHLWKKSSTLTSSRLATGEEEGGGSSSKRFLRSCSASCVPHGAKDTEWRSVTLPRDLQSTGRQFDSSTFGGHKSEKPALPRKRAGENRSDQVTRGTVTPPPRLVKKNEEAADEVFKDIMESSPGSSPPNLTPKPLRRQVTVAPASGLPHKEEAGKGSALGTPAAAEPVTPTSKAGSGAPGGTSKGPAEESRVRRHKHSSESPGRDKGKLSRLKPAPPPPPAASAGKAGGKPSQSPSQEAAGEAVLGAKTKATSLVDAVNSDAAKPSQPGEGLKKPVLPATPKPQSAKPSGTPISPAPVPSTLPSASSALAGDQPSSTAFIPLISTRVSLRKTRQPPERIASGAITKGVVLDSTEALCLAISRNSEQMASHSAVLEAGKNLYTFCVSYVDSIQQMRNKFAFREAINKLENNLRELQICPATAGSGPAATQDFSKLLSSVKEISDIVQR
Chain of Tyrosine-protein kinase JAK1 (Homo sapiens) (P23458 whole entry, the tested form may be a part): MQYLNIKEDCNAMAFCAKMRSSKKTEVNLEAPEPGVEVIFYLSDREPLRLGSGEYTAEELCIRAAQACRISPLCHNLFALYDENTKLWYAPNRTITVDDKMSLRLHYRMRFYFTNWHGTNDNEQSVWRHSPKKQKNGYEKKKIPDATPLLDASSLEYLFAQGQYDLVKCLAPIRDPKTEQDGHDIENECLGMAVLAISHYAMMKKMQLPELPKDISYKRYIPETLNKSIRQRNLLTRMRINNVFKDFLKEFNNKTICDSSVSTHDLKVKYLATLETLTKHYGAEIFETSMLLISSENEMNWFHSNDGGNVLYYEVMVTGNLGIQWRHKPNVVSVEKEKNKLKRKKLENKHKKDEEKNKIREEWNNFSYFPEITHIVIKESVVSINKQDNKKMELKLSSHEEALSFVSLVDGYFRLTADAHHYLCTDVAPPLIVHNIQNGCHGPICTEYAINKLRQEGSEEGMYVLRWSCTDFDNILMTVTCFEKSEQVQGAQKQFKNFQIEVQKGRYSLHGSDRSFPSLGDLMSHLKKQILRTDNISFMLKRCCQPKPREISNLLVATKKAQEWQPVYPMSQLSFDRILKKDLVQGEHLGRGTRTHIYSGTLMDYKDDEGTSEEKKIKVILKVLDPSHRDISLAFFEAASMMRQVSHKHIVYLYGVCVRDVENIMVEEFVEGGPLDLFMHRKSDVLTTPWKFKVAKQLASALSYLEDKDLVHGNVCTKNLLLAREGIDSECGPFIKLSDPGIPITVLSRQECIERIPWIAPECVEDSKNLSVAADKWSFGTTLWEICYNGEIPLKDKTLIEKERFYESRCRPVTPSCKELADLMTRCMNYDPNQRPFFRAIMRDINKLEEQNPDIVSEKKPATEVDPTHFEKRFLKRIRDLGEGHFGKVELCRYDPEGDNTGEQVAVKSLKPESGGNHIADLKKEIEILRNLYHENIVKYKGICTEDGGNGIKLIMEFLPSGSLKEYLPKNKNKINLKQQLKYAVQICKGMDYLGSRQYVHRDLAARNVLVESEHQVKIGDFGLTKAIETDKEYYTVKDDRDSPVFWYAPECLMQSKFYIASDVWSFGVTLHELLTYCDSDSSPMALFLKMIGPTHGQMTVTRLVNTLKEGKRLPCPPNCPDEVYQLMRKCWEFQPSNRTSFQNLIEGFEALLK
Chain of Leukocyte tyrosine kinase receptor (P29376 whole entry): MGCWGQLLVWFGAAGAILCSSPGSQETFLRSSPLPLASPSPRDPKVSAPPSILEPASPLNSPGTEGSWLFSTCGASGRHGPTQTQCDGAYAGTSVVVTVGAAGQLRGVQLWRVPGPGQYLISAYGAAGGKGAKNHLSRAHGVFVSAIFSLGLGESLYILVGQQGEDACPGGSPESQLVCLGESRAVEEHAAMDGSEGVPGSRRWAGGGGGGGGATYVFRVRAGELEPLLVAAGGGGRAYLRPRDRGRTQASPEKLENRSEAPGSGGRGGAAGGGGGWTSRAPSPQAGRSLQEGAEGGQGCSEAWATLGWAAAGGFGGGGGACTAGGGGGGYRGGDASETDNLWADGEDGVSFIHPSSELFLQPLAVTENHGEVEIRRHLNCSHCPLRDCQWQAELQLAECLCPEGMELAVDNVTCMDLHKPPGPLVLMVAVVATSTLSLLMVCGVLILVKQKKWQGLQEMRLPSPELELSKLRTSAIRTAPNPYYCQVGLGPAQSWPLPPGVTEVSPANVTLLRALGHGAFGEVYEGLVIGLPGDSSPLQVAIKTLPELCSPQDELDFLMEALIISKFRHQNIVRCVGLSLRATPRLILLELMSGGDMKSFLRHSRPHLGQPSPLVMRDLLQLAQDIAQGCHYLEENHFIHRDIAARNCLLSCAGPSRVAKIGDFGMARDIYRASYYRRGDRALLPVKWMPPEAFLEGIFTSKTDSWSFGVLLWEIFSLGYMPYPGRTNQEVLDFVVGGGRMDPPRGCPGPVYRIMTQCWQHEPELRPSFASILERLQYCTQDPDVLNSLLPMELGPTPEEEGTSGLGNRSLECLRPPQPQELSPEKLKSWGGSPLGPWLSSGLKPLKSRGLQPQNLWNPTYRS

inhibition [13]: 52%
inhibition [14]: 50%
inhibition [15]: Active
inhibition [16]: inactive
inhibition [17]: inactive
inhibition [21]: inactive
inhibition [22]: 50%
inhibition [23]: 85%
IC50 [24]: 10.6 µM
IC50 [25]: 10.5 µM
IC50 [26]: 16.6 µM
Structure (SMILES): NS(=O)(=O)OCCn1cnc2c(Nc3ccc(F)cc3)nc(NCc3ccc(C4CCCCC4)cc3)nc21
Activity [1]: 22.7%
Activity [2]: 23.2%
viability at 12.5 µM [3]: 1.98%
Activity [4]: 7.57%
Activity [5]: 74.4%
Activity (JJN-3 [6]): 19.5%
Activity (JJN-3 [7]): 38.8%
viability at 7.5 µM (JJN-3 [8]): 64.5%
Activity (JJN-3 [9]): 17.6%
Activity (JJN-3 [10]): 16%
viability at 12.5 µM (JJN-3 [11]): 36.4%
viability at 7.5 µM [12]: 53.8%
Activity (XG6 [18]): Active
growth inhibition (GI) (JJN-3 [19]): inactive
growth inhibition (GI) (SK-MM-2): Active
Activity (OCI-AML2): Active
growth inhibition (GI) (XG6 [20]): Active
Activity (DU-145): Active
EC50 (MDA-MB-468): 19.9 µM
